Reference: patent US7071212B2, “N-(4-carbamimidoyl-phenyl)-glycine derivatives” (Hoffmann-La Roche Inc., priority 1998, dated 2006)

Target: T1, factor VIIa/tissue factor complex (Homo sapiens, UniProt P08709)
T1 construct: 9 nM of soluble factor VIIa
Test: inhibition of the amidolytic activity of factor VIIa/tissue factor complex (chromogenic peptide substrate)
Type: biochemical
Conditions: 26 nM tissue factor, 9 nM soluble factor VIIa, 8 mM calcium chloride, substrate Chromozym-tPA, pH 7.5, room temperature
Description: The measurements were carried out on microtitre plates at room temperature. To this end, 100 μl of a solution of 26 nM of tissue factor, 9 nM of soluble factor VIIa and 8 mM of calcium chloride were added to 25 μl of a solution of the inhibitor in a buffer [pH 7.5, 100 mM, comprising 0.14M NaCl, 0.1M N-(2-hydroxyethyl)piperazine-N′-(2-ethanesulphonic acid) (HEPES), 0.5 mg/l of fatty-acid-free BSA (bovine serum albumin) and 0.05% NaN3] in each well of the plate. After an incubation time of 15 minutes the reaction was started by the addition of 50 μl of chromogenic substrate Chromozym-tPA (3.5 mM, MeSO2-D-Phe-Gly-Arg-paranitroanilide) and the hydrolysis of the substrate was followed spectrophotometrically on a kinetic microtitre plate reader over 10 minutes. Using the plot of the inhibition curves, the Ki values were determined according to the method described in Biochem. J. 55, 1953, 170–171. The results will be evident from the following Table (Ki in μM/l): […]

T1 sequence (P08709 213-466 limits assumed): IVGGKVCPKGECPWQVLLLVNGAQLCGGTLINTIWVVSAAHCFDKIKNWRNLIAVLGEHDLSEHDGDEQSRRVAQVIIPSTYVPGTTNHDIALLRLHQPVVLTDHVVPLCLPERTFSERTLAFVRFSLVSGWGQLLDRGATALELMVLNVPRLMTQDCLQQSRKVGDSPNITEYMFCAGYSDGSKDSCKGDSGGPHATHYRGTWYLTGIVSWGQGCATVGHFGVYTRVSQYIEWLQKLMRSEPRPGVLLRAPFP
T1 sequence (P08709 61-212 partner limits assumed): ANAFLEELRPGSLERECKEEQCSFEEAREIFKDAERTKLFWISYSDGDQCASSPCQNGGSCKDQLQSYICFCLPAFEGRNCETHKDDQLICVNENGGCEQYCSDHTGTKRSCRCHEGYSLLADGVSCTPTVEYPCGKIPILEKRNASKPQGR
T1 sequence (P13726 33-295 partner): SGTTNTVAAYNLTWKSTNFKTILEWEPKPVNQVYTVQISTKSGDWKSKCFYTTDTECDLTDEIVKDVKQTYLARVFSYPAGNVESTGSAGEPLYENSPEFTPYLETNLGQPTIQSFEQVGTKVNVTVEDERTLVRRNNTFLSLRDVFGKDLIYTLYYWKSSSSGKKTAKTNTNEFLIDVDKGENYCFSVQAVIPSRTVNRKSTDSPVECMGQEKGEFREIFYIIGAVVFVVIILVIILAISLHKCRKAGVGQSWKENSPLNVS

Row | Ki [nM] | Structure (SMILES)
1 | 84 | COc1cc(OC)c(OCC(=O)O)c(C(Nc2ccc(C(=N)N)cc2)C(=O)O)c1 (racemic) [Example 15, (RS)-(4-carbamimidoyl-phenylamino)-(2-carboxymethoxy-3,5-dimethoxy-phenyl)-acetic acid]
2 | 38.5 | COc1cc(OCC(=O)O)c(C(Nc2ccc(C(=N)N)cc2)C(=O)O)cc1OC (racemic) [Example 17, (RS)-(4-carbamimidoyl-phenylamino)-(2-carboxymethoxy-4,5-dimethoxy-phenyl)-acetic acid]

System: not given
Test: not given
Conditions: not given

Row | Structure (SMILES) | melting point [°C]
3 | N=C(N)c1ccc(NC(C(=O)O)c2cccc(OCc3ccccc3)c2)cc1 (racemic) [Example 39.4, (RS)-(3-benzyloxy-phenyl)-(4-carbamimidoyl-phenylamino)-acetic acid] | 306
4 | CCOc1ccc(OCCOC)c(C(Nc2ccc(C(=N)N)cc2)C(=O)O)c1 (racemic) [Example 46.4, (RS)-(4-carbamimidoyl-phenylamino)-[5-ethoxy-2-(2-methoxy-ethoxy)-phenyl]-acetic acid] | 275
5 | [H]/N=C(\NO)c1ccc(NC(C(=O)OC)c2cc(OC)c(OC)cc2OCc2cccc(C(=O)OC)c2)cc1 (racemic) [Example 52.3, methyl (Z)-(RS)-3-(2-{[4-(N-hydroxycarbamimidoyl)-phenylamino]-methoxycarbonyl-methyl}-4,5-dimethoxy-phenoxymethyl)-benzoate] | 173
6 | CCCc1cc(C)cc(C(Nc2ccc(C(=N)N)cc2)C(=O)O)c1OCCO (racemic) [Example 56.5, (RS)-(4-carbamimidoyl-phenylamino)-[2-(2-hydroxy-ethoxy)-5-methyl-3-propyl-phenyl]-acetic acid] | 240
7 | C=CCc1cc(C)cc(C(Nc2ccc(C(=N)N)cc2)C(=O)O)c1OCCO (racemic) [Example 57.4, (RS)-[3-allyl-2-(2-hydroxy-ethoxy)-5-methyl-phenyl]-(4-carbamimidoyl-phenylamino)-acetic acid] | 228
8 | CCCc1cc(C)c(OCCO)c(C(Nc2ccc(C(=N)N)cc2)C(=O)O)c1 (racemic) [Example 58.5, (RS)-(4-carbamimidoyl-phenylamino)-[2-(2-hydroxy-ethoxy)-3-methyl-5-propyl-phenyl]-acetic acid] | 230

Further lines, results first:

Row | melting point [°C] | Structure (SMILES)
9 | 223 | N=C(N)c1ccc(NC(C(=O)O)c2ccccc2OCC(=O)O)cc1 (racemic) [Example 40.3, (RS)-(4-carbamimidoyl-phenylamino)-(2-carboxymethoxy-phenyl)-acetic acid]
10 | 310 | COc1ccc(OC)c(C(Nc2ccc(C(=N)N)cc2)C(=O)O)c1 (racemic) [Example 41.4, (RS)-(4-carbamimidoyl-phenylamino)-(2,5-dimethoxy-phenyl)-acetic acid]
11 | 213 | COc1ccc(OCC(=O)O)c(C(Nc2ccc(C(=N)N)cc2)C(=O)O)c1 (racemic) [Example 43.4, (RS)-(4-carbamimidoyl-phenylamino)-(2-carboxymethoxy-5-methoxy-phenyl)-acetic acid]
12 | 260 | CCOc1ccc(OCCCCC(=O)O)c(C(Nc2ccc(C(=N)N)cc2)C(=O)O)c1 (racemic) [Example 45.4, (RS)-5-{2-[(4-carbamimidoyl-phenylamino)-carboxy-methyl]-4-ethoxy-phenoxy}-pentanoic acid]
13 | 266 | CCOc1ccc(OCC(N)=O)c(C(Nc2ccc(C(=N)N)cc2)C(=O)O)c1 (racemic) [Example 48.5, (RS)-(4-carbamimidoyl-phenylamino)-(2-carbamoylmethoxy-5-ethoxy-phenyl)-acetic acid]
